Here are results for 26 compounds from patent US20200046625A1, “COMPOUNDS USEFUL FOR THE TREATMENT AND/OR CARE OF THE SKIN, HAIR, NAILS AND/OR MUCOUS MEMBRANES” (LUBRIZOL ADVANCED MATERIALS, INC., priority 2016, published 2020).

Assay [1] deals with primary human subcutaneous pre-adipocyte cells. Put plainly: Reduction of lipid accumulation, AdipoRed fluorescent assay. The class given is cell-based. The settings on record: 8 days of treatment, PGM2 = 0%, PDM2 basal control = 100%. On the procedure:
The reduction of the percentage of lipid accumulation in human pre-adipocyte cells in a complete differentiation medium (basal control) is studied by treatment of the cells with the peptides of the invention. Quantification of lipid accumulation is evaluated with AdipoRed™ Assay Reagent (Lonza). Human pre-adipocyte cells (Lonza) are seeded in quadruplicate (10.000 cells/well) on a 96-well plate and they are incubated on a complete growth medium (PGM2, Lonza) for 24 hours at […] in a water-saturated atmosphere composed of 95% air and 5% CO2. The differentiation of pre-adipocytes into adipocytes is induced by changing the complete growth medium (PGM2, Lonza) for the complete differentiation medium (PDM2, Lonza). The cells are treated with the peptides of the invention at different concentrations prepared in complete differentiation medium. Caffeine (Sigma) at 0.2 mg/ml in PDM2 medium is used as a negative control of the lipid accumulation in the cells. Caffeine is the most widely used anti-cellulite cosmetic agent. […] Manufacturer protocol is followed for the use of AdipoRed™ Assay Reagent (Lonza). In brief, the cells are washed and the reagent AdipoRed™ is added diluted (5/200). After being incubated for 15 minutes in darkness and at room temperature, the Relative Fluorescence Units (RFUs) are measured using a fluorescence plate reader (CLARIOstar™, BMG LABTECH), with excitation filter at 485 nm and emission filter at 572 nm. […] The results are calculated as the mean of all the independent experiments carried out in each case for each peptide and concentration assayed.

The subject of assay [2] is Nocturnin (CCRN4L) in primary human subcutaneous pre-adipocyte cells. Put plainly: Relative level of nocturnin by ELISA, normalized with BCA total protein. The following applies: for Nocturnin level with respect to basal condition (%): 6 days of treatment, mean of 3 independent experiments. Type of assay: cell-based. On the procedure:
The decrease in the relative level of nocturnin protein in human pre-adipocytes, cells that form adipose tissue, in a complete differentiation medium (basal condition) is studied when treating the peptides of the invention.
Human pre-adipocytes are seeded (10,000 cells/well, 4 wells per condition) on a 96-well plate and incubated on a complete growth medium (PGM2, LONZA) for 24 hours at 37° C. at an atmosphere with a CO2 level of 5%.
After incubation, the cells are treated with the peptides at 0.1, 0.5 and 1 mg/ml and its respective vehicles prepared in a complete differentiation medium (PDM2, LONZA). After 6 days of treatment at an atmosphere with 37° C. and a 5% CO2 level, the nocturnin level is measured using an ELISA test, and the total protein concentration is measured using a BCA (Bicinchoninic Acid) assay. For each concentration, the ELISA results are normalized with the BCA results. […] The values represent the mean of 3 independent experiments.
The manufacturer protocol of the ELISA kit for Carbon Catabolite Repression 4 Like Protein (CCRN4L) (Uscn Life Science Inc) is followed. In brief, the cells are lysed and the cell extracts are incubated on a 96-well plate coated with an anti-body specific to CCRN4L. Afterwards, the wells are coated with an antibody specific to CCRN4L conjugated with Biotin. Next, the Avidin conjugated with the enzyme Horseradish Peroxidase (HRP) is added to the plate. Finally, 3,3′,5,5′-Tetramethylbenzidine substrate is added to the plate and a change in color is observed proportionally to the quantity of nocturnin in each concentration. Lastly, a sulfuric acid solution is added to stop the enzyme-substrate reaction and quantify the color change with an absorbance reader (CLARIOstar™, BMG LABTECH) at 450 and 570 nm.
The manufacturer protocol of the BCA Protein assay kit (Pierce) is followed. The total protein concentration of the lysed cells is measured via a colorimetric reaction using a protein standard. In brief, the standard and the samples are distributed onto 96-well plates. The plate is then incubated with the reagent of the kit and finally the change in color is measured with the absorbance reader (CLARIOstar, BMG LABTECH) at 570 nm.

The star is where a group is joined. Palmitoyl = CCCCCCCCCCCCCCCC(=O)*; Myristoyl = CCCCCCCCCCCCCC(=O)*

Turning to H-Tyr-Val-Tyr-NH2, the “% Lipid Accumulation” value in assay [1] (0.1 mg/ml) was 32.65%; in assay [1] (0.5 mg/ml) it was 18.60%; in assay [1] (1 mg/ml), 15.65%. Also, the results for the Nocturnin level with respect to basal condition (%) in assay [2] (0.1 mg/mL), in assay [2] (0.5 mg/mL) and in assay [2] (1 mg/mL) were 76%, 62% and 48%, respectively. Besides, in assay [2] (0.1, 0.5 and 1 mg/ml), the “dose-response of nocturnin reduction (in words)” value is listed as “a dose-response relationship is observed”. As for H-Tyr-Val-Tyr-Phe-NH2 (H-YVYF-NH2), the “% Lipid Accumulation” value in assay [1] (1 mg/ml) is 86.68%. The same measure, in the same setting: to H-Tyr-Val-Tyr-NHC16H33 belongs 50.12%. In the case of `Cn1c(=O)c2c(ncn2C)n(C)c1=O` [Caffeine, reference compound], the “% Lipid Accumulation” value in assay [1] (0.2 mg/ml in PDM2) stood at 76.07%.

Turning to H-Phe-Trp-Tyr-Val-Tyr-NH2 (H-FWYVY-NH2), the “% Lipid Accumulation” value in assay [1] (0.005 mg/ml) was determined as 55.99%. With Palmitoyl-Tyr-Leu-Tyr-OH, the “% Lipid Accumulation” value in assay [1] (0.005 mg/ml) is 79.98%. For H-Phe-Tyr-Val-Tyr-Phe-NH2 (H-FYVYF-NH2), the “% Lipid Accumulation” value in assay [1] (1 mg/ml) worked out at 64.31%. Take H-Tyr-Leu-Trp-NH2: the “% Lipid Accumulation” value in assay [1] (1 mg/ml) is given as 62.42%.

For the compound H-Tyr-Val-Tyr-OH, the “% Lipid Accumulation” value in assay [1] (0.1 mg/ml) is 35.14%; in assay [1] (0.5 mg/ml), 33.55%; in assay [1] (1 mg/ml) it was 22.66%. Further, the Nocturnin level with respect to basal condition (%) was 67% in assay [2] (0.1 mg/mL), 87% in assay [2] (0.5 mg/mL) and 83% in assay [2] (1 mg/mL). Take H-Tyr-Ile-Phe-NH2: in assay [1] (1 mg/ml), the “% Lipid Accumulation” value is given as 47.45%.

In the case of Myristoyl-Tyr-Val-Tyr-NH2, the “% Lipid Accumulation” value in assay [1] (1 mg/ml) worked out at 12.40%. As for Ac-Tyr-Val-Tyr-NH2, the “% Lipid Accumulation” value in assay [1] (1 mg/ml) was determined as 20.81%. Turning to Myristoyl-Tyr-Val-Phe-NH2, the “% Lipid Accumulation” value in assay [1] (1 mg/ml) is reported as 37.77%. Still for that read-out and setting: then H-Tyr-Ile-Tyr-NH2, with 46.63%. As to H-Tyr-Val-Tyr-Trp-NH2 (H-YVYW-NH2), in assay [1] (1 mg/ml), the “% Lipid Accumulation” value was determined as 90.32%. On the same count and under the same terms, to H-Tyr-Val-Trp-NH2 belongs 61.87%; to H-Tyr-Ile-Tyr-NHC16H33, 23.74%.

For the compound H-Tyr-Val-Tyr-NHC6H13, the “% Lipid Accumulation” value in assay [1] (1 mg/ml) worked out at 30.79%. Regarding H-Tyr-Ile-Tyr-NHC6H13, the “% Lipid Accumulation” value in assay [1] (1 mg/ml) stood at 52.82%. As for H-Tyr-Met-Tyr-NH2, the “% Lipid Accumulation” value in assay [1] (1 mg/ml) was determined as 40.24%. With Palmitoyl-Tyr-Leu-Tyr-NH2, in assay [1] (1 mg/ml), the “% Lipid Accumulation” value turned out to be 25.42%. With Palmitoyl-Tyr-Val-Tyr-NH2, the “% Lipid Accumulation” value in assay [1] (0.1 mg/ml) was 86.17%. Regarding H-Tyr-Val-Tyr-Phe-Trp-NH2 (H-YVYFW-NH2), the “% Lipid Accumulation” value in assay [1] (1 mg/ml) is given as 76.47%. Regarding H-Tyr-Ile-Phe-NHC16H33, the “% Lipid Accumulation” value in assay [1] (1 mg/ml) amounted to 40.61%. H-Tyr-Ile-Phe-NHC6H13: the “% Lipid Accumulation” value in assay [1] (1 mg/ml) was found to be 30.72%. Take Ac-Trp-Val-Tyr-NH2: the “% Lipid Accumulation” value in assay [1] (1 mg/ml) came to 63.18%.
